Measurements taken from US9469650B2, “Melampomagnolide B derivatives” (BOARD OF TRUSTEES OF THE UNIVERSITY OF ARKANSAS, priority 2013, dated 2016).

Assays:
SK-OV-3 = assay: panel of 60 human tumor cell lines, growth inhibition (Ovarian Cancer); details: Homo sapiens
CCRF-CEM = assay: panel of 60 human tumor cell lines, growth inhibition (Leukemia); details: Homo sapiens
RXF 393 = assay: panel of 60 human tumor cell lines, growth inhibition (Renal Cancer); details: Homo sapiens
TK-10 = assay: as above; details: Homo sapiens
OVCAR-3 = assay: panel of 60 human tumor cell lines, growth inhibition (Ovarian Cancer)
OVCAR-8 = assay: as above; details: Homo sapiens
HCT-15 = assay: panel of 60 human tumor cell lines, growth inhibition (Colon Cancer); details: Homo sapiens
MDA-MB-468 = assay: panel of 60 human tumor cell lines, growth inhibition (Breast Cancer); details: Homo sapiens
HOP-92 = assay: panel of 60 human tumor cell lines, growth inhibition (Non-Small Cell Lung Cancer); details: Homo sapiens
NCI-H23 = assay: as above; details: Homo sapiens
COLO 205 = assay: panel of 60 human tumor cell lines, growth inhibition (Colon Cancer); details: Homo sapiens
SK-MEL-5 = assay: panel of 60 human tumor cell lines, growth inhibition (Melanoma); details: Homo sapiens
BT-549 = assay: panel of 60 human tumor cell lines, growth inhibition (Breast Cancer); details: Homo sapiens
A549/ATCC = assay: panel of 60 human tumor cell lines, growth inhibition (Non-Small Cell Lung Cancer); details: Homo sapiens
NCI-H522 = assay: as above; details: Homo sapiens
IGROV1 = assay: panel of 60 human tumor cell lines, growth inhibition (Ovarian Cancer); details: Homo sapiens
MCF7 = assay: panel of 60 human tumor cell lines, growth inhibition (Breast Cancer); details: Homo sapiens

Compound `C=C1C(=O)O[C@H]2[C@H]1CC/C(COC(=S)n1ccnc1)=C\CC[C@@]1(C)O[C@@H]21` [JVM 66] has a GI50 (SK-OV-3; SK-OV-3) of 61.4 µM, a CC50 (SK-OV-3; SK-OV-3, read-out: LC50) of over 100 µM and an IC (TGI) (SK-OV-3; SK-OV-3, read-out: TGI) of over 100 µM. It also gave a GI50 (CCRF-CEM; NCI five dose) of 3.38 µM, a CC50 (CCRF-CEM; read-out: LC50) of over 100 µM and an IC (TGI) (CCRF-CEM; read-out: TGI) of 16.6 µM. The GI50 (RXF 393; RXF 393, RXF 393, NCI five dose) was 3.08 µM, the CC50 (RXF 393; RXF 393, read-out: LC50) was 57.4 µM and the IC (TGI) (RXF 393; RXF 393, read-out: TGI) was 11.4 µM. It also gave a GI50 (TK-10; TK-10, TK-10, NCI five dose) of 10.5 µM, a CC50 (TK-10; TK-10, read-out: LC50) of 58.2 µM and an IC (TGI) (TK-10; TK-10, read-out: TGI) of 24.8 µM. The GI50 (OVCAR-3; Homo sapiens, OVCAR-3) was 10.4 µM, the CC50 (OVCAR-3; Homo sapiens, OVCAR-3, read-out: LC50) was 49.2 µM and the “Percent Growth” value (OVCAR-3; OVCAR-3, Log10 Concentration −4.0) was −96%. The “Percent Growth” value (OVCAR-3; OVCAR-3, Log10 Concentration −5.0) was 53%, the “Percent Growth” value (OVCAR-3; OVCAR-3, Log10 Concentration −6.0) was 103% and the “Percent Growth” value (OVCAR-3; OVCAR-3, Log10 Concentration −7.0) was 130%. The “Percent Growth” value (OVCAR-3; OVCAR-3, Log10 Concentration −8.0) was 101%, the GI50 (OVCAR-8; OVCAR-8) was 11.4 µM and the CC50 (OVCAR-8; OVCAR-8, read-out: LC50) was over 100 µM. It also gave an IC (TGI) (OVCAR-8; OVCAR-8, read-out: TGI) of over 100 µM, a GI50 (HCT-15; HCT-15) of 6.88 µM and a CC50 (HCT-15; HCT-15, read-out: LC50) of 89.2 µM. It also gave an IC (TGI) (HCT-15; HCT-15, read-out: TGI) of 27.1 µM, a GI50 (MDA-MB-468; MDA-MB-468) of 3.55 µM and a CC50 (MDA-MB-468; MDA-MB-468, read-out: LC50) of over 100 µM. The IC (TGI) (MDA-MB-468; MDA-MB-468, read-out: TGI) was 28.5 µM, the GI50 (HOP-92; HOP-92, HOP-92, NCI five dose) was 6.83 µM and the CC50 (HOP-92; HOP-92, read-out: LC50) was 83.2 µM. It also gave an IC (TGI) (HOP-92; HOP-92, read-out: TGI) of 26.9 µM, a GI50 (NCI-H23; NCI-H23) of 13.5 µM and a CC50 (NCI-H23; NCI-H23, read-out: LC50) of over 100 µM. The IC (TGI) (NCI-H23; NCI-H23, read-out: TGI) was 59.8 µM, the GI50 (COLO 205; COLO 205) was 12.3 µM and the CC50 (COLO 205; COLO 205, read-out: LC50) was 61.9 µM. The IC (TGI) (COLO 205; COLO 205, read-out: TGI) was 27.6 µM, the GI50 (SK-MEL-5; SK-MEL-5) was 13.3 µM and the CC50 (SK-MEL-5; SK-MEL-5, read-out: LC50) was 55.6 µM. The IC (TGI) (SK-MEL-5; SK-MEL-5, read-out: TGI) was 27.7 µM, the GI50 (BT-549; BT-549) was 18.3 µM and the CC50 (BT-549; BT-549, read-out: LC50) was over 100 µM. The IC (TGI) (BT-549; BT-549, read-out: TGI) was 68 µM, the CC50 (A549/ATCC; A549, read-out: LC50) was over 100 µM and the IC (TGI) (A549/ATCC; A549, read-out: TGI) was 106 µM. It also gave a GI50 (NCI-H522; NCI-H522) of 5.19 µM, a CC50 (NCI-H522; NCI-H522, read-out: LC50) of 66.9 µM and an IC (TGI) (NCI-H522; NCI-H522, read-out: TGI) of 21.3 µM. It also gave a GI50 (IGROV1; IGROV-1) of 9.04 µM, a CC50 (IGROV1; IGROV-1, read-out: LC50) of over 100 µM and a GI50 (MCF7; MCF7, MCF7, NCI five dose) of 4.19 µM. It also gave a CC50 (MCF7; MCF7, read-out: LC50) of 76.7 µM and an IC (TGI) (MCF7; MCF7, read-out: TGI) of 19.8 µM.
